This is an account of results in the Deep4Chem optical property database.

The nature of the data set: solvent given as SMILES.

As to `O=C1c2ccc3c4c(Oc5ccccc5)cc5c6c(ccc(c7c(Oc8ccccc8)cc(c2c37)C(=O)N1c1ccc(O)cc1)c64)C(=O)N(c1ccc(O)cc1)C5=O`, the absorption maximum is, setting by setting: (in C1CCOC1) 513 nm; (in CN1CCCC1=O) 487 nm; (in CN(C)C=O) 495 nm.
Where the note is “in CC#N”, `CCOC(=O)c1c2c3c(cccc3c3cc4c(cc13)[Si](C)(C)O[Si]4(C)C)N(C)C2=O` registered an absorption maximum of 376 nm.
In the case of `COc1ccc2c3ccc(OC)cc3n(-c3ccc(-c4nnc(C)o4)cc3)c2c1`, the absorption maximum (in Cc1ccccc1) is given as 319 nm.
The compound `CC(=O)c1c(N[C@@H](CC(C)C)C(=O)O)c2ccc(N(C)C)cc2oc1=O` yielded an absorption maximum (in ClCCl) of 372 nm.
For `CN1c2ccccc2C(O)(c2ccccc2)c2cc([N+](=O)[O-])ccc21` (stereo not drawn), the absorption maximum (in C1CCOC1) was determined as 392.4 nm; the absorption maximum (in CC#N) was found to be 396.9 nm; the absorption maximum (in CCO) worked out at 393.7 nm; the absorption maximum (in CO) worked out at 396 nm; the absorption maximum (in CS(C)=O) came out at 410 nm; the absorption maximum (in Cc1ccccc1) came out at 381.5 nm.
Turning to `CC(C)(C)c1cc2ccc3cccc4c3c2c(c1)c1nc2c3cc(C(C)(C)C)cc5ccc6cccc(c(=O)n2c41)c6c53`, the absorption maximum runs as follows: (in C1CCOC1) 395 nm; (in CC#N) 389 nm; (in CC(C)=O) 391 nm; (in CCCCCC) 393 nm; (in CCO) 390 nm; (in CCOC(C)=O) 390 nm. In addition, the absorption maximum (in CO) is 382 nm; the absorption maximum (in CS(C)=O) is reported as 391 nm; the absorption maximum (in Cc1ccc(C)cc1) was 392 nm; the absorption maximum (in ClC(Cl)(Cl)Cl) was found to be 395 nm; the absorption maximum (in ClC(Cl)Cl) amounted to 395 nm; the absorption maximum (in c1ccccc1) came to 395 nm.
In turn, `c1ccc(/C(=C(\c2ccccc2)c2ccccc2-c2ccc(-c3ccccc3)cc2)c2ccccc2-c2ccc(-c3ccccc3)cc2)cc1` registered an absorption maximum (in C1CCOC1) of 280 nm.
The compound `CCOC(=O)c1ccc(C2CC(c3cccc4ccccc34)=NN2c2ccc(C)cc2)cc1` (stereo not drawn) had an absorption maximum (in ClCCl) of 385 nm.
`CC(=O)[B-]1(C(C)=O)OC(c2ccc3ccccc3c2)=CC(c2ccc3ccccc3c2)=[O+]1` had an absorption maximum (in CC#N) of 420 nm and an absorption maximum (in ClC(Cl)(Cl)Cl) of 415 nm.
Consider `C1=C(c2ccc(-c3cccs3)s2)CCC1`, for which the absorption maximum reads like this: (in C1CCOC1) 345 nm; (in CC#N) 342 nm; (in CCCCCC) 341 nm; (in CCO) 341 nm; (in OCCOCCO) 347 nm; (in c1ccncc1) 348 nm.
`CC(C)(C)c1ccc2c3c(c4ccc(C(C)(C)C)cc4c2c1)=[N+]1C(=C(c2ccccc2)c2c(Br)c4c5ccc(C(C)(C)C)cc5c5cc(C(C)(C)C)ccc5c4n2[B-]1(F)F)C=3Br`: the absorption maximum by setting is: (in C1CCCCC1) 689 nm; (in C1CCOC1) 686 nm; (in CC#N) 682 nm; (in Cc1ccccc1) 691 nm; (in ClCCl) 689 nm.
Turning to `C[n+]1ccc(/C=C/c2ccc(N(c3ccccc3)c3ccc(/C=C/c4cc[n+](C)cn4)cc3)cc2)nc1`, the absorption maximum reads like this: (in CS(C)=O) 500 nm; (in O) 525 nm; (in OCC(O)CO) 560 nm.
In turn, `CCCCc1ccc(C#Cc2ccc3nc4ccc(C#Cc5ccc(CCCC)cc5)cn4c(=O)c3c2)cc1` displayed an absorption maximum (in ClCCl) of 383 nm.
`CCn1c2ccccc2c2ccc(-c3ccc(OC)cc3)cc21`: for the setting “in C1CCCCC1”, the absorption maximum is 310 nm.
Turning to `O=CC1=C(c2ccc(-c3cccs3)s2)CCC1`, the absorption maximum reads like this: (in C1CCOC1) 377 nm; (in CC#N) 374 nm; (in CCCCCC) 366 nm; (in CCO) 386 nm; (in OCCOCCO) 377 nm; (in c1ccncc1) 385 nm.
Take `O=c1oc2ccccc2c2cc(N3c4ccccc4Oc4ccccc43)ccc12`: the absorption maximum (in Cc1ccccc1) was 395 nm.
As for `CCN=C=S`, the absorption maximum (in CCCCCC) was 250 nm.
Regarding `CC1=CC(/C=C/c2ccc3ccc4cccc5ccc2c3c45)=[N+]2C1=C(c1ccccc1)c1c(C)cc(/C=C/c3ccc4ccc5cccc6ccc3c4c56)n1[B-]2(F)F`, the absorption maximum (in CC1CCCO1) was 691 nm.
With `c1ccc(N2c3ccc4ccccc4c3-c3c4ccccc4nc[n+]3[B-]2(c2ccccc2)c2ccccc2)cc1`, the absorption maximum runs as follows: (in C1CCC2CCCCC2C1) 542 nm; (in C1CCCCC1) 539 nm; (in C1CCOC1) 535 nm; (in CC#N) 527 nm; (in CC(C)=O) 530 nm; (in CCCCCC) 537 nm. For the same compound, the absorption maximum turned out to be 532 nm (in CCOC(C)=O), 532 nm (in CN(C)C=O), 539 nm (in Cc1ccccc1) and 541 nm (in ClC(Cl)Cl).
As to `Cc1ccc(-c2ccc(/C=C/c3cccs3)cn2)nc1`, the absorption maximum (in CC#N) turned out to be 348 nm.
Turning to `O=P1(c2ccccc2)C(c2cccs2)=C(c2cccs2)c2ccccc21` (stereo not drawn), the absorption maximum (in C1CCOC1) was 368 nm.
Consider `O=C(c1ccc(N(c2ccccc2)c2ccccc2)cc1)[C@H]1[C@H](c2cccs2)C[C@](O)(c2ccccn2)C[C@]1(O)c1ccccn1`, for which the absorption maximum (in C1CCOC1) amounted to 370 nm; the absorption maximum (in CC#N) is on record as 364 nm; the absorption maximum (in CCO) was 368 nm; the absorption maximum (in CCOC(C)=O) was 366 nm; the absorption maximum (in CN(C)C=O) turned out to be 358 nm; the absorption maximum (in ClCCl) was found to be 374 nm. In addition, for the setting “in c1ccccc1”, the absorption maximum was found to be 372 nm.
On to `N#CC(C#N)=Cc1ccc2c(c1)c1ccccc1n2-c1cccc2ccccc12`, for which, under “in ClCCl”, the absorption maximum was 404 nm.
On to `COc1cc(N(CC(=O)[O-])CC(=O)[O-])c2nc(COc3cc(C)ccc3N(CC(=O)[O-])CC(=O)[O-])ccc2c1`, for which the absorption maximum (in O) is on record as 356 nm.
`Cc1ccc(-c2ccc(C(=O)NC(C)(C)C)c3c2ccc2c4ccccc4c4ccccc4c23)cc1` registered an absorption maximum (in ClCCl) of 341 nm.
Take `CC1(C)C(/C=C/c2cc3ccc(O)cc3oc2=O)=[N+](CCCS(=O)(=O)[O-])c2ccc(S(=O)(=O)O)cc21`: the absorption maximum by setting is: (in CCO) 630 nm; (in CS(C)=O) 485 nm; (in O) 573 nm.
As to `Cc1ccc(C(=O)NN2C3=C(CC4=C2CCCC4=O)C(=O)CCC3)cc1`, the absorption maximum reads like this: (in C1CCOC1) 366 nm; (in CC#N) 368 nm; (in CC(C)=O) 366 nm; (in CCCCCO) 376 nm; (in CO) 374 nm; (in ClC(Cl)Cl) 370 nm. Further, the absorption maximum (in ClCCl) was found to be 366 nm.
With `c1ccc(-c2c3c(c(-c4ccccc4)c4cc5ccccc5cc24)Cc2c(c(-c4ccccc4)c4cc5ccccc5cc4c2-c2ccccc2)C3)cc1`, the absorption maximum runs as follows: (in CC#N) 389 nm; (in CCCCCC) 388 nm; (in CO) 388 nm; (in Cc1ccccc1) 391 nm; (in ClCCl) 392 nm.
Regarding `Nc1nc(/C=C/c2ccc(N(c3ccccc3)c3ccccc3)cc2)cc(/C=C/c2ccc(N(c3ccccc3)c3ccccc3)cc2)n1`, the absorption maximum by setting is: (in Cc1ccccc1) 417 nm; (in ClC(Cl)Cl) 432 nm.
Under “in CCO”, `Cc1c(COC(=O)c2ccccc2)n2c(OCC(=O)c3ccccc3)c(C)c(=O)n2c1=O` gave an absorption maximum of 381 nm.
